According to the NIST ThermoML archive (doi:10.1021/je049943s):

Legend:
[1] = 101.33 kPa, Liquid
[2] = excess molar enthalpy (molar enthalpy of mixing); xn = mol fraction of the nth substance listed; details: 308.15 K, 101.33 kPa, Liquid

OCCOCCO [diethylene glycol]
[1]
Details | mass density [kg/m3]
298.15 K | 1112.38
308.15 K | 1105.88

CC(O)CO (stereo unspecified) [1,2-propanediol]
Details | mass density [kg/m3]
[1], 308.15 K | 1026.15

OCCc1ccccc1 [2-phenylethanol] + OCCOCCOCCO
[2]
Details | excess molar enthalpy [kcal/mol]
x2 = 0.036 | -0.0244
x2 = 0.0695 | -0.0421
x2 = 0.1008 | -0.0542
x2 = 0.13 | -0.0622
x2 = 0.1832 | -0.0713
x2 = 0.2296 | -0.0755
x2 = 0.3096 | -0.079
x2 = 0.3741 | -0.0801
x2 = 0.4728 | -0.0805
x2 = 0.5737 | -0.0778
x2 = 0.6421 | -0.0755
x2 = 0.7346 | -0.0676
x2 = 0.782 | -0.06
x2 = 0.8433 | -0.0473
x2 = 0.8777 | -0.0396
x2 = 0.915 | -0.0282
x2 = 0.9556 | -0.0151

OCCOCCOCCO [triethylene glycol]
[1]
Details | mass density [kg/m3]
298.15 K | 1119.78
308.15 K | 1112.61

OCCc1ccccc1 [2-phenylethanol] + OCCOCCO
[2]
Details | excess molar enthalpy [kcal/mol]
x2 = 0.05 | -0.0263
x2 = 0.0952 | -0.0434
x2 = 0.1363 | -0.0541
x2 = 0.1738 | -0.0613
x2 = 0.2399 | -0.0675
x2 = 0.2961 | -0.0721
x2 = 0.3869 | -0.0735
x2 = 0.4569 | -0.0727
x2 = 0.5579 | -0.0712
x2 = 0.6544 | -0.0684
x2 = 0.7163 | -0.0652
x2 = 0.7911 | -0.0577
x2 = 0.8347 | -0.0503
x2 = 0.8834 | -0.0401
x2 = 0.9099 | -0.0355
x2 = 0.9381 | -0.0248
x2 = 0.968 | -0.0131

OCCc1ccccc1 [2-phenylethanol]
Details | mass density [kg/m3]
[1], 308.15 K | 1008.68

OCCc1ccccc1 [2-phenylethanol] + OCCO
[2]
Details | excess molar enthalpy [kcal/mol]
x2 = 0.0823 | 0.0254
x2 = 0.1521 | 0.0386
x2 = 0.212 | 0.0456
x2 = 0.264 | 0.0486
x2 = 0.3498 | 0.0495
x2 = 0.4177 | 0.0478
x2 = 0.5183 | 0.0467
x2 = 0.5892 | 0.0446
x2 = 0.6827 | 0.0408
x2 = 0.7635 | 0.036
x2 = 0.8115 | 0.0313
x2 = 0.8659 | 0.0257
x2 = 0.8959 | 0.0214
x2 = 0.9281 | 0.0168
x2 = 0.9451 | 0.0134
x2 = 0.9627 | 0.00989
x2 = 0.981 | 0.00507

OCCc1ccccc1 [2-phenylethanol] + CC(O)CO
[2]
Details | excess molar enthalpy [kcal/mol]
x2 = 0.0637 | 0.0251
x2 = 0.1198 | 0.0403
x2 = 0.1695 | 0.0483
x2 = 0.2139 | 0.0548
x2 = 0.2858 | 0.0599
x2 = 0.3525 | 0.0608
x2 = 0.4495 | 0.0582
x2 = 0.5212 | 0.0576
x2 = 0.6201 | 0.0539
x2 = 0.7101 | 0.0509
x2 = 0.7656 | 0.0473
x2 = 0.8305 | 0.0397
x2 = 0.8672 | 0.0339
x2 = 0.9074 | 0.0266
x2 = 0.9289 | 0.0212
x2 = 0.9494 | 0.0158
x2 = 0.9751 | 0.00853

OCCc1ccccc1 [2-phenylethanol] + OCCOCCOCCOCCO
[2]
Details | excess molar enthalpy [kcal/mol]
x2 = 0.0281 | -0.0289
x2 = 0.0546 | -0.0488
x2 = 0.0797 | -0.0614
x2 = 0.1036 | -0.0687
x2 = 0.1478 | -0.0782
x2 = 0.1878 | -0.0817
x2 = 0.2575 | -0.0832
x2 = 0.3161 | -0.0835
x2 = 0.4095 | -0.0859
x2 = 0.5099 | -0.0878
x2 = 0.5811 | -0.0845
x2 = 0.6754 | -0.08
x2 = 0.7351 | -0.0724
x2 = 0.8063 | -0.0606
x2 = 0.8473 | -0.0507
x2 = 0.8928 | -0.042
x2 = 0.9433 | -0.0258
